Test results taken from publication PMC6158786 (ACS chemical biology, 2018).
Changes are numbered by the printed parent chain.

How the values were obtained:
Assay type in all cases: biochemical
human BCO1 [1] = biological target: T1, human BCO1 (Homo sapiens, UniProt Q9HAY6); test: HPLC product formation; conditions: DMN micelles, pH 7, 30 °C, 12 min
T1 sequence (Q9HAY6 1-547): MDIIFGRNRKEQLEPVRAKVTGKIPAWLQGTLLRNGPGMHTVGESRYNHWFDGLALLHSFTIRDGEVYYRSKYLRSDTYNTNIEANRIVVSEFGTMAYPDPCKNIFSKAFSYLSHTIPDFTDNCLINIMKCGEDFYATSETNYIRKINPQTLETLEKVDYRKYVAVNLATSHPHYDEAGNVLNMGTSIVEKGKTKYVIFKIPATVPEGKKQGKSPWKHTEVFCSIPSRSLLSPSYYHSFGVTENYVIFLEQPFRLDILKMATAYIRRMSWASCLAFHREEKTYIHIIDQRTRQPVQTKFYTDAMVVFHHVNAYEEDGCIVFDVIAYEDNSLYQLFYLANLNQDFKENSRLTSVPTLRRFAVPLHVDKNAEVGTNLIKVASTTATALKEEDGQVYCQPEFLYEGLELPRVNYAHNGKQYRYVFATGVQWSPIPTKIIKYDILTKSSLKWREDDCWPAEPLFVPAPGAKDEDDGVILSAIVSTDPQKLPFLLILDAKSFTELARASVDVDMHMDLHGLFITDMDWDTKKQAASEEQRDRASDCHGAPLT

human BCO1 [2] = biological target: T2, human BCO1 (Homo sapiens, UniProt Q9HAY6, L168G/W270F); test: HPLC product formation with E. coli protein extract; conditions: DMN micelles, 30 °C; product all-trans-3-hydroxy-retinal
T2 sequence (Q9HAY6 1-547 L168G/W270F): T1 sequence (Q9HAY6 1-547) with L168G, W270F

human BCO1 [3] = biological target: T3, human BCO1 (Homo sapiens, UniProt Q9HAY6, W270F); test: as above; conditions: DMN micelles, 30 °C; product all-trans-3-hydroxy-retinal
T3 sequence (Q9HAY6 1-547 W270F): T1 sequence (Q9HAY6 1-547) with W270F

human BCO1 [4] = biological target: T1, human BCO1; test: inhibition of BC cleavage by E. coli crude extract, HPLC; conditions: 20 μM BC, 10 μM fenretinide, DMN micelles

SMILES: CC1=C(/C=C/C(C)=C/C=C/C(C)=C/C=C/C=C(C)/C=C/C=C(C)/C=C/C2=C(C)CCCC2(C)C)C(C)(C)CCC1 [BC, β,β-carotene]
- HPLC product formation (human BCO1 [1]; product all-trans-retinal): BCO1 catalyzed the production of all-trans-retinal from BC

SMILES: CC1=C(/C=C/C(C)=C/C=C/C(C)=C/C=C/C=C(C)/C=C/C=C(C)/C=C/C2=C(C)C[C@@H](O)CC2(C)C)C(C)(C)CCC1 [CX, 3R-β,β-Caroten-3-ol]
- HPLC product formation (human BCO1 [1]; products all-trans-retinal and 3-hydroxy-retinal): all-trans-retinal and all-trans-3-hydroxy-retinal resulting from CX cleavage displayed distinct retention times

SMILES: CC1=C(/C=C/C(C)=C/C=C/C(C)=C/C=C/C=C(C)/C=C/C=C(C)/C=C/C2=C(C)C[C@@H](O)CC2(C)C)C(C)(C)C[C@H](O)C1 [ZEA, zeaxanthin]
- HPLC product formation with E. coli protein extract (human BCO1 [2]): mutant BCO1 variants readily converted zeaxanthin to all-trans-3-hydroxy-retinal in repeated assays
- HPLC product formation with E. coli protein extract (human BCO1 [3]): mutant BCO1 variants readily converted zeaxanthin to all-trans-3-hydroxy-retinal in repeated assays

SMILES: CC1=C(/C=C/C(C)=C/C=C/C(C)=C/C(=O)Nc2ccc(O)cc2)C(C)(C)CCC1 [fenretinide]
- inhibition at 10 μM (human BCO1 [4]): fenretinide, a known BCO1 inhibitor, efficiently inhibited the enzymatic activity of BCO1
